# Measurements published in publication PMC5454994, “Assembly of Hepatocyte Spheroids Using Magnetic 3D Cell Culture for CYP450 Inhibition/Induction” (International Journal of Molecular Sciences, 2017).
# Legend:
# [1] = target: T1, CYP1A2 (Homo sapiens, UniProt P05177); experiment: CYP1A2 activity (P450-Glo, Luciferin-1A2) in primary human hepatocyte spheroids and monolayers after 72 h drug exposure; assay type: in vitro ADME; settings: primary human hepatocytes, 72 h exposure
# T1 sequence (P05177 1-516): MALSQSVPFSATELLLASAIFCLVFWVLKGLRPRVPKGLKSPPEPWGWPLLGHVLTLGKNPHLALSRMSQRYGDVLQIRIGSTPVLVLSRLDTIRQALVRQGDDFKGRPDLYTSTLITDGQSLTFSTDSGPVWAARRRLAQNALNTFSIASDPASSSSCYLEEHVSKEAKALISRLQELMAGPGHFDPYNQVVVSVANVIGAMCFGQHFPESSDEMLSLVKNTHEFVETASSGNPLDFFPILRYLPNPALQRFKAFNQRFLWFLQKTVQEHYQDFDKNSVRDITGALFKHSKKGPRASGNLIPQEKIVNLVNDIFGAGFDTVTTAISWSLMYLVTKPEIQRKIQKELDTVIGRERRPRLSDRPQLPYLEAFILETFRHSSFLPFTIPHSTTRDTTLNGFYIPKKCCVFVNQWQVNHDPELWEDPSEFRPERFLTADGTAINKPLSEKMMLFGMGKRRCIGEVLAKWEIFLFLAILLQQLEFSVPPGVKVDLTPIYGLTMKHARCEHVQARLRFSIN
# [2] = target: T2, CYP2B6 (Homo sapiens, UniProt P20813); settings: CYP2B6 replicates, primary human hepatocytes, 72 h exposure
# T2 sequence (P20813 1-491): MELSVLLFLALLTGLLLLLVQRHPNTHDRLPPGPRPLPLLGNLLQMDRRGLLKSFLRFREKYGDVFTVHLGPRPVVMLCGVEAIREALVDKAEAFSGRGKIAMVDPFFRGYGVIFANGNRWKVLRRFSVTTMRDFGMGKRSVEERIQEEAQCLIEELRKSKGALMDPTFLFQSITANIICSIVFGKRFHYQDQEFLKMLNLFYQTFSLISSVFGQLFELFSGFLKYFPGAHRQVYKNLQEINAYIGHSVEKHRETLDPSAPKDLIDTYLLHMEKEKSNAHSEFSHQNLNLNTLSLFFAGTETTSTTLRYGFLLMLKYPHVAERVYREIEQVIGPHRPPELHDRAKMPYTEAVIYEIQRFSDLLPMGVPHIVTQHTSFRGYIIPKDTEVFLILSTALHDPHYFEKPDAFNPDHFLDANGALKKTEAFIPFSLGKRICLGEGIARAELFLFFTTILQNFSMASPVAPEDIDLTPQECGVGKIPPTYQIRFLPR
smiles,measurement,setting,value
COc1ccc2[nH]c([S+]([O-])Cc3ncc(C)c(OC)c3C)nc2c1 (stereo not drawn) [omeprazole],CYP1A2 activity in the presence of toxicity,[1],no observed decrease in CYP activity despite toxicity
same,"CYP1A2 induction, monolayers compared to spheroids",[1]; normalized to control,higher in monolayers compared to spheroids
CO[C@H]1/C=C/O[C@@]2(C)Oc3c(C)c(O)c4c(O)c(c(/C=N/N5CCN(C)CC5)c(O)c4c3C2=O)NC(=O)/C(C)=C\C=C\[C@H](C)[C@H](O)[C@@H](C)[C@@H](O)[C@@H](C)[C@H](OC(C)=O)[C@@H]1C [rifampicin],CYP2B6 activity in the presence of toxicity,[2],no observed decrease in CYP activity despite toxicity
